Active and inactive are the calls of the source. The calls are words filed in the database; no cut-off is given here.
Assays:
[1] = biological target: Tyrosine-protein kinase BTK (Homo sapiens, UniProt Q06187); experiment: Inhibition of full length recombinant human BTK using KVEKIGEGTYGVVYK as substrate incubated for 40 mins in presence of [gamma-33P]-ATP by scintillation counting based radiometry assay
[2] = system: NCI-H1299; experiment: Antiproliferative activity against human NCI-H1299 cells at 5 to 125 uM incubated for 72 hrs by SRB or CCK8 assay; format: functional, cell-based; settings: dose 5-125 µM
[3] = Tmax in ICR mouse at 3 mg/kg, po measured upto 24 hrs by LC-MS analysis; format: ADME, organism-based; settings: in vivo
[4] = system: NCI-H1299; experiment: Antiproliferative activity against human NCI-H1299 cells incubated for 72 hrs by SRB or CCK8 assay; format: functional, cell-based; settings: NCI-H1299, 72 h
[5] = Toxicity in BALB/c nude mouse assessed as reduction in body weight at 100 mg/kg, po administered once daily for 14 days; format: organism-based; settings: in vivo, 336 h, time 14 day
[6] = system: HT-29; experiment: Antiproliferative activity against human HT-29 cells incubated for 72 hrs by SRB or CCK8 assay; format: functional, cell-based; settings: HT-29, 72 h
[7] = biological target: Mitogen-activated protein kinase kinase kinase kinase 2 (Homo sapiens, UniProt Q12851); experiment: Inhibition of recombinant human GCK (1 to 473 residues) using myelin basic protein as substrate incubated for 40 mins in presence of [gamma-33ATP] by scintillation counting based radiometry assay
[8] = biological target: Mitogen-activated protein kinase 1 (Homo sapiens, UniProt P28482); experiment: Inhibition of human full length recombinant ERK2 using myelin basic protein as substrate incubated for 40 mins in presence of [gamma33P-ATP] by radiometric scintillation counting analysis
Chain of Mitogen-activated protein kinase 1 (P28482 whole entry): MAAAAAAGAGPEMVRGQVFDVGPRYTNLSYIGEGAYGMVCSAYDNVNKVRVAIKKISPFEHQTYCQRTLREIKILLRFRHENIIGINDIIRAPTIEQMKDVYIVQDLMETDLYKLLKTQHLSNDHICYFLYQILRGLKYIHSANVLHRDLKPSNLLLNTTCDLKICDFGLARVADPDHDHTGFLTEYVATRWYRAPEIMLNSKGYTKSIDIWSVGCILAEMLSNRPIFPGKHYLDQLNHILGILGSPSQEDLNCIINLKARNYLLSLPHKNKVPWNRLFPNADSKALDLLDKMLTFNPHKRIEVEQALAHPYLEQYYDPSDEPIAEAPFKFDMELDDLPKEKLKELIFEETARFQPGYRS

[9] = system: KMS-11; experiment: Antiproliferative activity against human KMS-11 cells incubated for 72 hrs by SRB or CCK8 assay; format: functional, cell-based; settings: KMS-11, 72 h
[10] = biological target: Mast/stem cell growth factor receptor Kit (Homo sapiens, UniProt P10721); experiment: Inhibition of recombinant human C-Kit using poly(Glu, Tyr) 4:1 as substrate incubated for 40 mins in presence of [gamma-33ATP] by scintillation counting based radiometry assay
[11] = biological target: Mitogen-activated protein kinase kinase kinase 20 (Homo sapiens, UniProt Q9NYL2); experiment: Inhibition of recombinant full-length human ZAK using MBP as substrate incubated for 40 mins in presence of [gamma33P]ATP by scintillation counting based radiometry assay
Chain of Mitogen-activated protein kinase kinase kinase 20 (Q9NYL2 whole entry): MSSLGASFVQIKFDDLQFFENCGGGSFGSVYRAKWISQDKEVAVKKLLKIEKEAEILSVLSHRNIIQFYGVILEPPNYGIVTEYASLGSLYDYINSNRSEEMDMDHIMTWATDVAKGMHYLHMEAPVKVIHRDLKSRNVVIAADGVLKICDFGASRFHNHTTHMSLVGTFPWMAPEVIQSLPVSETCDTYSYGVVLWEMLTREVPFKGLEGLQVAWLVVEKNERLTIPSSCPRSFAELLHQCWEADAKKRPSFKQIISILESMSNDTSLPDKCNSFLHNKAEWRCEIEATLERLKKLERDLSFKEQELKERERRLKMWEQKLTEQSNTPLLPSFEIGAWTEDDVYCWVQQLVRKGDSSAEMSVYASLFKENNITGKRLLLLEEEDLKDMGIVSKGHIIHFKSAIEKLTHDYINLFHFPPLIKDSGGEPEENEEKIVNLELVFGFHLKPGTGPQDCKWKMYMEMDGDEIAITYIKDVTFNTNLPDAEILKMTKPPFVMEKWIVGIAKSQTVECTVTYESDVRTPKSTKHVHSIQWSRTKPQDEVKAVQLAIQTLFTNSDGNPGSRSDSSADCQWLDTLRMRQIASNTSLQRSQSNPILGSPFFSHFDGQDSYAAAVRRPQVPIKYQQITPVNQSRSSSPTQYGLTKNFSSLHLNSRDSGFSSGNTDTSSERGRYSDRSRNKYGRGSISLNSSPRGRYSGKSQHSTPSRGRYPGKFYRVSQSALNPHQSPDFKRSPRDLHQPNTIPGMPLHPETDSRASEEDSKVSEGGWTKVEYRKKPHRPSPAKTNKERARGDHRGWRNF

[12] = biological target: Serine/threonine-protein kinase A-Raf (Homo sapiens, UniProt P10398); experiment: Inhibition of recombinant human A-Raf (273 to end residues) using myelin basic protein as substrate incubated for 40 mins in presence of [gamma-33ATP] by scintillation counting based radiometry assay
[13] = system: HL-60; experiment: Antiproliferative activity against human HL-60 cells incubated for 72 hrs by SRB or CCK8 assay; format: functional, cell-based; settings: HL-60, 72 h
[14] = biological target: CDK12/Cyclin K (Homo sapiens, UniProt Q9NYV4); experiment: Inhibition of recombinant full length human CDK12/CyclinK using RSRSRSRSRSRSR as substrate incubated for 40 mins in presence of [gamma-33ATP] by scintillation counting based radiometry assay; format: protein-complex assay
[15] = biological target: Hepatocyte growth factor receptor (Homo sapiens, UniProt P08581); experiment: Inhibition of MET signaling in human MKN45 cells assessed as reduction in phosphorylation of ERK after 2 hrs by Western blotting analysis; format: cell-based; settings: MKN-45, dose 10-100 nM
Chain of Hepatocyte growth factor receptor (P08581 whole entry): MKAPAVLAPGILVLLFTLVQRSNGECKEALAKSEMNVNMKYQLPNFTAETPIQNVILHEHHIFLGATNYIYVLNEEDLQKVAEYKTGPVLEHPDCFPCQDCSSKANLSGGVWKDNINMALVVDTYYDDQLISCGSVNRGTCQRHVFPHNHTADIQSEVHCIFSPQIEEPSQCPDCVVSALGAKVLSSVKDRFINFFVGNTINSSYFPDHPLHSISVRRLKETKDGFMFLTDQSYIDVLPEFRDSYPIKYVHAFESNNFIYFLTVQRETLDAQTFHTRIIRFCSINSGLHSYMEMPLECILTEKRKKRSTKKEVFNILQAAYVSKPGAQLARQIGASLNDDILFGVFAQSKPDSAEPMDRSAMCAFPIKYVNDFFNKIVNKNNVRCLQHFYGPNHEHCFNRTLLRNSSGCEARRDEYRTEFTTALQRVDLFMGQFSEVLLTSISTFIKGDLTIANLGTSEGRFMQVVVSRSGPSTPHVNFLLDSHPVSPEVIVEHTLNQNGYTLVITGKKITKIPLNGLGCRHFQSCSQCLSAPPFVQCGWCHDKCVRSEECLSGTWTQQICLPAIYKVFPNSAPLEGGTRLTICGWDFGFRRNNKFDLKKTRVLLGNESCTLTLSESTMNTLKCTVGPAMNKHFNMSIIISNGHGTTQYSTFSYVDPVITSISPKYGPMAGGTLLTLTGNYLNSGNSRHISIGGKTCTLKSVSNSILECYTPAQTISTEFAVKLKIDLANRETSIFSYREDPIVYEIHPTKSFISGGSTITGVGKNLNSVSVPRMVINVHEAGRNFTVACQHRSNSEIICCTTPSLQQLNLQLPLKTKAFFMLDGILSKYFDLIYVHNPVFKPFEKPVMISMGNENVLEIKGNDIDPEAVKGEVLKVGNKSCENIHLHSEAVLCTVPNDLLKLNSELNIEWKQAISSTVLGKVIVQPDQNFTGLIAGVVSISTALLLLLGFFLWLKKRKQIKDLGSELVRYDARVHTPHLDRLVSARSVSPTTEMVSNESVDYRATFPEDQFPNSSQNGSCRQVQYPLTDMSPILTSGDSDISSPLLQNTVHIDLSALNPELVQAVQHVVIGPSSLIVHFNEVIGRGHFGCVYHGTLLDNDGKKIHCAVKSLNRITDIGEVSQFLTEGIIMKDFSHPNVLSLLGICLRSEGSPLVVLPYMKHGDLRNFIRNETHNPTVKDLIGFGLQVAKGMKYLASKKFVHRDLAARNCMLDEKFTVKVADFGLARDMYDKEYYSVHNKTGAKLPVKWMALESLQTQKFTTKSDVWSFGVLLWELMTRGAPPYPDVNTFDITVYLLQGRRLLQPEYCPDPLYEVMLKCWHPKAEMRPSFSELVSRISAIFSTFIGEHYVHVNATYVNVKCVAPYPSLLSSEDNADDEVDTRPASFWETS

[16] = system: SNU-449; experiment: Inhibition of Gas6-stimulated cell invasion in human SNU-449 cells at […] after 24 hrs by crystal violet staining based microscopic analysis; format: functional; settings: dose lower 5.0 µM
[17] = biological target: PI3-kinase p110-delta/p85-alpha (Homo sapiens, UniProt O00329); experiment: Inhibition of recombinant human full length PI3K p110delta/p85a using phosphatidylinositol-4, 5-bisphosphate as substrate incubated for 40 mins in presence of [gamma33P]ATP by scintillation counting based radiometry assay; format: protein-complex assay
Chain of PI3-kinase p110-delta/p85-alpha (P27986 whole entry): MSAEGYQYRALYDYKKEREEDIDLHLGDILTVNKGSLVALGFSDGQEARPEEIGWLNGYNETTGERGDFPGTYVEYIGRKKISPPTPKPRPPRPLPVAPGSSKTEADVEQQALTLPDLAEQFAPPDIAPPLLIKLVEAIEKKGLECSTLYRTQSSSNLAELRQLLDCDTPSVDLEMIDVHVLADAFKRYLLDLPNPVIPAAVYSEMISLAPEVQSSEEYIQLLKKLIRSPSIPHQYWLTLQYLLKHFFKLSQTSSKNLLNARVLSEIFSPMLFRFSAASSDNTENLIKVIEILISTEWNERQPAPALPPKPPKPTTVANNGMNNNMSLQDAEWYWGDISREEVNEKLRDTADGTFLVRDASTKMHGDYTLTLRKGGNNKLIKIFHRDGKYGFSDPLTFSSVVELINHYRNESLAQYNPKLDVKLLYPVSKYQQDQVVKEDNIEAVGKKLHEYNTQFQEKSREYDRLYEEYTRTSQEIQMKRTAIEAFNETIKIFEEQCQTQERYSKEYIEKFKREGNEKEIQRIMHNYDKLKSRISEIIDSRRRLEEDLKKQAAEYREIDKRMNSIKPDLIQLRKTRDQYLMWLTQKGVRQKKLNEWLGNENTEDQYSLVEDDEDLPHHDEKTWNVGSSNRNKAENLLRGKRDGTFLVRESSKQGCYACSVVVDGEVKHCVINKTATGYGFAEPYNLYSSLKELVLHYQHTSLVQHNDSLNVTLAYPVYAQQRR
Chain of PI3-kinase p110-delta/p85-alpha (O00329 whole entry): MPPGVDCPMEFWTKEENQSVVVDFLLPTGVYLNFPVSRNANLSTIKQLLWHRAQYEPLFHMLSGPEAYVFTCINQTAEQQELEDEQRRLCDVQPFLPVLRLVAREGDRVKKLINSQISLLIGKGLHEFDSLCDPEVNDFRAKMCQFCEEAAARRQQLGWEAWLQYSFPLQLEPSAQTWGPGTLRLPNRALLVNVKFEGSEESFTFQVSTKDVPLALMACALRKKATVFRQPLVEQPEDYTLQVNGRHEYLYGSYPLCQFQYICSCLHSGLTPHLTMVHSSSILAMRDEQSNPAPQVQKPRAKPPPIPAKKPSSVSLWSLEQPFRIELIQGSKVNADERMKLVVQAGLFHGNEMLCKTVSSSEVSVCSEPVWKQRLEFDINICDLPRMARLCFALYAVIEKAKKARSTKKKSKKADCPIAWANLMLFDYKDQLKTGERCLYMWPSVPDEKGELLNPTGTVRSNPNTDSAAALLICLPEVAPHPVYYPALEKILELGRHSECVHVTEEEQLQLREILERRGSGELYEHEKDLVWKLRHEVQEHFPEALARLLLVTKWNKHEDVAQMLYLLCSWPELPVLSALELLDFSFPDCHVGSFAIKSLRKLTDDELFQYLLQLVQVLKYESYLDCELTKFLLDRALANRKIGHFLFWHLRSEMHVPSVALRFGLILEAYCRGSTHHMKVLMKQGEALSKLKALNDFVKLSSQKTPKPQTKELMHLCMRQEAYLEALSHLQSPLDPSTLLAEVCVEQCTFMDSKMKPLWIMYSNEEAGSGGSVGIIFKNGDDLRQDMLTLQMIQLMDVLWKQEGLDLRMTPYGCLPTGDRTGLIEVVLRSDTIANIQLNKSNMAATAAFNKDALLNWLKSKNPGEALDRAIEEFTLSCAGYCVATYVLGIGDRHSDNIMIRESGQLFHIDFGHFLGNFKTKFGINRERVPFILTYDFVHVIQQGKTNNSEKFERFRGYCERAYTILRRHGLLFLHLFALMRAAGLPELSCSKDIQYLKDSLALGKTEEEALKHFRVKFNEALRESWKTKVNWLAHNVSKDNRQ

[18] = biological target: Vascular endothelial growth factor receptor 1 (Homo sapiens, UniProt P17948); experiment: Inhibition of recombinant human FLT1 (783 to end residues) using KKKSPGEYVNIEFG as substrate incubated for 40 mins in presence of [gamma-33ATP] by scintillation counting based radiometry assay
[19] = AUC(0 to t) in Sprague-Dawley rat at 3 mg/kg, po measured upto 24 hrs by LC-MS analysis; format: ADME, organism-based; set-up: route oral, dose 3 mg/kg, time <=24; settings: in vivo
[20] = biological target: Receptor tyrosine-protein kinase erbB-4 (Homo sapiens, UniProt Q15303); experiment: Inhibition of recombinant human ERBB4 (706 to 991 residues) using poly(Glu, Tyr) 4:1 as substrate incubated for 40 mins in presence of [gamma-33ATP] by scintillation counting based radiometry assay
[21] = system: U-87 MG; experiment: Antitumor activity against human U-87MG cells xenografted in BALB/c nude mouse assessed as tumor growth inhibition at 5 mg/kg, po administered once daily for 14 days by caliper method; format: functional, U-87MG ATCC; settings: 336 h, time 14 day, read-out: TGI
[22] = biological target: CDK6/cyclin D3 (Homo sapiens, UniProt Q00534); experiment: Inhibition of recombinant full length human CDK6/CyclinD3C using Rb fragment as substrate incubated for 40 mins in presence of [gamma-33ATP] by scintillation counting based radiometry assay; format: protein-complex assay
[23] = biological target: CDK4/Cyclin D3 (Homo sapiens, UniProt P11802); experiment: Inhibition of recombinant full length human CDK4/CyclinD3 using Rb fragment as substrate incubated for 40 mins in presence of [gamma-33ATP] by scintillation counting based radiometry assay; format: protein-complex assay
[24] = biological target: Tyrosine-protein kinase JAK1 (Homo sapiens, UniProt P23458); experiment: Inhibition of human JAK1 (866 to end residues) using GEEPLYWSFPAKKK as substrate after 40 mins in presence of [gamma-33ATP] by scintillation counting based radiometry assay

Chain of Tyrosine-protein kinase BTK (Q06187 whole entry): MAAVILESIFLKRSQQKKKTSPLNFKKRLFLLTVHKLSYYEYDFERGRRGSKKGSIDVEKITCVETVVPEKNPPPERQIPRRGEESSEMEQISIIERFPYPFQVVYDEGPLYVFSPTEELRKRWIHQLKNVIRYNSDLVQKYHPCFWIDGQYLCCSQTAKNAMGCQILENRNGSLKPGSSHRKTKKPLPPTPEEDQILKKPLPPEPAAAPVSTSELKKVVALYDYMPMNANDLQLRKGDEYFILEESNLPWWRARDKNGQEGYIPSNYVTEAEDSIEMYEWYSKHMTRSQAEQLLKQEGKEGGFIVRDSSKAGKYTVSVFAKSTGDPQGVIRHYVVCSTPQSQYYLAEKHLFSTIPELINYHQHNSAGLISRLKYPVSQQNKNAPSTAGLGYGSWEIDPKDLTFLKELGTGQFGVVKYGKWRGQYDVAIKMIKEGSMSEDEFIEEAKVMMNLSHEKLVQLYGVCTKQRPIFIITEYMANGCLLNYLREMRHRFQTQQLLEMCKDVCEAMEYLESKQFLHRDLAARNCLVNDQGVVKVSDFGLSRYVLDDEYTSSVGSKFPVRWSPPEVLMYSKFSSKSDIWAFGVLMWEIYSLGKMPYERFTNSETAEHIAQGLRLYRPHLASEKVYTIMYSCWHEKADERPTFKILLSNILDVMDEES

Compound: CC(C)n1cc(C(=O)Nc2ccc(Oc3ccnc(NC(=O)C4CC4)c3)c(F)c2)c(=O)n(-c2ccc(F)cc2)c1=O
- IC50 [1]: > 1 µM
- Activity [2]: inactive
- Tmax [3]: 1.67 h
- IC50 [4]: > 10 µM
- Activity [5]: Non-Toxic
- IC50 [6]: > 10 µM
- IC50 [7]: > 1 µM
- IC50 [8]: > 1 µM
- IC50 [9]: > 10 µM
- IC50 [10]: > 1 µM
- IC50 [11]: > 0.1 µM
- IC50 [12]: > 1 µM
- IC50 [13]: > 10 µM
- IC50 [14]: > 1 µM
- inhibition [15]: Dose-Dependent Effect
- inhibition [16]: Active
- IC50 [17]: > 1 µM
- IC50 [18]: > 1 µM
- AUC(0-t) at 24 h [19]: 32600 ng·h/mL
- IC50 [20]: > 1 µM
- inhibition in vivo at 5 mg/kg [21]: 62.3%
- IC50 [22]: > 1 µM
- IC50 [23]: > 1 µM
- IC50 [24]: > 1 µM
